Key:
[1] = biological target: Cyclin-dependent kinase 8 (Homo sapiens) (UniProt P49336); experiment: Inhibition of CDK8 assessed as enzyme activity at 1 uM relative to untreated control; parameters: scale not given: the % may be the effect or the level left
[2] = biological target: Interferon-induced, double-stranded RNA-activated protein kinase (Homo sapiens) (UniProt P19525); experiment: Inhibition of PRKR assessed as enzyme activity at 1 uM relative to untreated control; parameters: scale not given: the % may be the effect or the level left
[3] = biological target: Serine/threonine-protein kinase 33 (Homo sapiens) (UniProt Q9BYT3); experiment: Inhibition of STK33 assessed as enzyme activity at 1 uM relative to untreated control; parameters: scale not given: the % may be the effect or the level left
[4] = biological target: Calcium/calmodulin-dependent protein kinase type II subunit alpha (Homo sapiens) (UniProt Q9UQM7); experiment: Inhibition of CAMK2A assessed as enzyme activity at 1 uM relative to untreated control; parameters: scale not given: the % may be the effect or the level left
[5] = biological target: Tyrosine-protein kinase Tec (Homo sapiens) (UniProt P42680); experiment: Inhibition of TEC assessed as enzyme activity at 1 uM relative to untreated control; parameters: scale not given: the % may be the effect or the level left
[6] = biological target: Serine/threonine-protein kinase 36 (Homo sapiens) (UniProt Q9NRP7); experiment: Inhibition of STK36 assessed as enzyme activity at 1 uM relative to untreated control; parameters: scale not given: the % may be the effect or the level left
[7] = biological target: Serine/threonine-protein kinase Nek9 (Homo sapiens) (UniProt Q8TD19); experiment: Inhibition of NEK9 assessed as enzyme activity at 1 uM relative to untreated control; parameters: scale not given: the % may be the effect or the level left
[8] = biological target: Serine/threonine-protein kinase RIO2 (Homo sapiens) (UniProt Q9BVS4); experiment: Inhibition of RIOK2 assessed as enzyme activity at 1 uM relative to untreated control; parameters: scale not given: the % may be the effect or the level left
[9] = biological target: Serine/threonine-protein kinase DCLK1 (Homo sapiens) (UniProt O15075); experiment: Inhibition of DCAMKL1 assessed as enzyme activity at 1 uM relative to untreated control; parameters: scale not given: the % may be the effect or the level left
[10] = biological target: Myosin light chain kinase, smooth muscle (Homo sapiens) (UniProt Q15746); experiment: Inhibition of MLCK assessed as enzyme activity at 1 uM relative to untreated control; parameters: scale not given: the % may be the effect or the level left
[11] = biological target: RAC-alpha serine/threonine-protein kinase (Homo sapiens) (UniProt P31749); experiment: Inhibition of AKT1 assessed as enzyme activity at 1 uM relative to untreated control; parameters: scale not given: the % may be the effect or the level left
[12] = biological target: Inhibitor of nuclear factor kappa-B kinase subunit alpha (Homo sapiens) (UniProt O15111); experiment: Inhibition of IKK-alpha assessed as enzyme activity at 1 uM relative to untreated control; parameters: scale not given: the % may be the effect or the level left
[13] = biological target: Mitogen-activated protein kinase kinase kinase kinase 2 (Homo sapiens) (UniProt Q12851); experiment: Inhibition of MAP4K2 assessed as enzyme activity at 1 uM relative to untreated control; parameters: scale not given: the % may be the effect or the level left
[14] = biological target: Tyrosine-protein kinase Lck (Homo sapiens, UniProt P06239); experiment: Inhibition of LCK
[15] = biological target: Serine/threonine-protein kinase TAO3 (Homo sapiens) (UniProt Q9H2K8); experiment: Inhibition of TAOK3 assessed as enzyme activity at 1 uM relative to untreated control; parameters: scale not given: the % may be the effect or the level left
[16] = tested on: Tyrosine-protein kinase ABL1 (Homo sapiens), P00519 [Y253F]; experiment: Inhibition of ABL1 Y253F mutant assessed as enzyme activity at 1 uM relative to untreated control; parameters: scale not given: the % may be the effect or the level left
[17] = biological target: Ephrin type-A receptor 8 (Homo sapiens) (UniProt P29322); experiment: Inhibition of EPHA8 assessed as enzyme activity at 1 uM relative to untreated control; parameters: scale not given: the % may be the effect or the level left
[18] = biological target: TRAF2 and NCK-interacting protein kinase (Homo sapiens) (UniProt Q9UKE5); experiment: Inhibition of TNIK assessed as enzyme activity at 1 uM relative to untreated control; parameters: scale not given: the % may be the effect or the level left
[19] = biological target: Cyclin-dependent kinase 7 (Homo sapiens) (UniProt P50613); experiment: Inhibition of CDK7 assessed as enzyme activity at 1 uM relative to untreated control; parameters: scale not given: the % may be the effect or the level left
[20] = biological target: Tyrosine-protein kinase Srms (Homo sapiens) (UniProt Q9H3Y6); experiment: Inhibition of SRMS assessed as enzyme activity at 1 uM relative to untreated control; parameters: scale not given: the % may be the effect or the level left
[21] = biological target: Receptor-interacting serine/threonine-protein kinase 1 (Homo sapiens) (UniProt Q13546); experiment: Inhibition of RIPK1 assessed as enzyme activity at 1 uM relative to untreated control; parameters: scale not given: the % may be the effect or the level left
[22] = biological target: Serine/threonine-protein kinase 17B (Homo sapiens) (UniProt O94768); experiment: Inhibition of DRAK2 assessed as enzyme activity at 1 uM relative to untreated control; parameters: scale not given: the % may be the effect or the level left
[23] = biological target: Phosphatidylinositol 4-phosphate 3-kinase C2 domain-containing subunit beta (Homo sapiens) (UniProt O00750); experiment: Inhibition of PIK3C2B assessed as enzyme activity at 1 uM relative to untreated control; parameters: scale not given: the % may be the effect or the level left
[24] = biological target: BDNF/NT-3 growth factors receptor (Homo sapiens) (UniProt Q16620); experiment: Inhibition of TRKB assessed as enzyme activity at 1 uM relative to untreated control; parameters: scale not given: the % may be the effect or the level left
[25] = Inhibition of FLT3 ITD assessed as enzyme activity at 1 uM relative to untreated control; parameters: scale not given: the % may be the effect or the level left
[26] = biological target: MAP kinase-activated protein kinase 5 (Homo sapiens) (UniProt Q8IW41); experiment: Inhibition of MAPKAPK5 assessed as enzyme activity at 1 uM relative to untreated control; parameters: scale not given: the % may be the effect or the level left
[27] = biological target: Tyrosine-protein kinase Blk (Homo sapiens) (UniProt P51451); experiment: Inhibition of BLK assessed as enzyme activity at 1 uM relative to untreated control; parameters: scale not given: the % may be the effect or the level left
[28] = biological target: Phosphatidylinositol 5-phosphate 4-kinase type-2 beta (Homo sapiens) (UniProt P78356); experiment: Inhibition of PIP5K2B assessed as enzyme activity at 1 uM relative to untreated control; parameters: scale not given: the % may be the effect or the level left
[29] = tested on: eIF-2-alpha kinase GCN2 (Homo sapiens), Q9P2K8 [S808G]; experiment: Inhibition of GCN2 kinase domain-2 S808G mutant assessed as enzyme activity at 1 uM relative to untreated control; parameters: scale not given: the % may be the effect or the level left
[30] = biological target: 3-phosphoinositide-dependent protein kinase 1 (Homo sapiens) (UniProt O15530); experiment: Inhibition of PDPK1 assessed as enzyme activity at 1 uM relative to untreated control; parameters: scale not given: the % may be the effect or the level left
[31] = biological target: LIM domain kinase 2 (Homo sapiens) (UniProt P53671); experiment: Inhibition of LIMK2 assessed as enzyme activity at 1 uM relative to untreated control; parameters: scale not given: the % may be the effect or the level left
[32] = biological target: Leukocyte tyrosine kinase receptor (Homo sapiens) (UniProt P29376); experiment: Inhibition of LTK assessed as enzyme activity at 1 uM relative to untreated control; parameters: scale not given: the % may be the effect or the level left
[33] = biological target: Serine/threonine-protein kinase Nek5 (Homo sapiens) (UniProt Q6P3R8); experiment: Inhibition of NEK5 assessed as enzyme activity at 1 uM relative to untreated control; parameters: scale not given: the % may be the effect or the level left
[34] = biological target: Mitogen-activated protein kinase 12 (Homo sapiens) (UniProt P53778); experiment: Inhibition of p38-gamma assessed as enzyme activity at 1 uM relative to untreated control; parameters: scale not given: the % may be the effect or the level left
[35] = biological target: cGMP-dependent protein kinase 2 (Homo sapiens) (UniProt Q13237); experiment: Inhibition of PRKG2 assessed as enzyme activity at 1 uM relative to untreated control; parameters: scale not given: the % may be the effect or the level left
[36] = biological target: TGF-beta receptor type-1 (Homo sapiens) (UniProt P36897); experiment: Inhibition of TGFBR1 assessed as enzyme activity at 1 uM relative to untreated control; parameters: scale not given: the % may be the effect or the level left
[37] = biological target: Bone morphogenetic protein receptor type-1A (Homo sapiens) (UniProt P36894); experiment: Inhibition of BMPR1A assessed as enzyme activity at 1 uM relative to untreated control; parameters: scale not given: the % may be the effect or the level left
[38] = biological target: Mitogen-activated protein kinase 1 (Homo sapiens) (UniProt P28482); experiment: Inhibition of ERK2 assessed as enzyme activity at 1 uM relative to untreated control; parameters: scale not given: the % may be the effect or the level left

Sequence of 3-phosphoinositide-dependent protein kinase 1 (Homo sapiens) (O15530 whole entry, the tested form may be a part): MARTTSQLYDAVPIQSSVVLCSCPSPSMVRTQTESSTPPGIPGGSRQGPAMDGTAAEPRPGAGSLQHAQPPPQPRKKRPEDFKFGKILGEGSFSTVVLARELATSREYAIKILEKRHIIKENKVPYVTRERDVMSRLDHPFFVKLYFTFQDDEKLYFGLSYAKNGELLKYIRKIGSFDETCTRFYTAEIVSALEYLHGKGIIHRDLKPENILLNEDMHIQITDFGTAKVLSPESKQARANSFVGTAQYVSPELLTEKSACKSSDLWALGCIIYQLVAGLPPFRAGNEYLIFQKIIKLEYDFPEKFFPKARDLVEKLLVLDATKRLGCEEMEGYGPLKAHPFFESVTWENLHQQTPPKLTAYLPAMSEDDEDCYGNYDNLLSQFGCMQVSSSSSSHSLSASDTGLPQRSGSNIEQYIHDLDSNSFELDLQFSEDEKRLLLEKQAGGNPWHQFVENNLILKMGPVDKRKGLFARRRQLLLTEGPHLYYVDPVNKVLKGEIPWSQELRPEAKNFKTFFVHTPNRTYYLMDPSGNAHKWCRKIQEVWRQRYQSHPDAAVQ
Sequence of Serine/threonine-protein kinase 33 (Homo sapiens) (Q9BYT3 whole entry, looked up): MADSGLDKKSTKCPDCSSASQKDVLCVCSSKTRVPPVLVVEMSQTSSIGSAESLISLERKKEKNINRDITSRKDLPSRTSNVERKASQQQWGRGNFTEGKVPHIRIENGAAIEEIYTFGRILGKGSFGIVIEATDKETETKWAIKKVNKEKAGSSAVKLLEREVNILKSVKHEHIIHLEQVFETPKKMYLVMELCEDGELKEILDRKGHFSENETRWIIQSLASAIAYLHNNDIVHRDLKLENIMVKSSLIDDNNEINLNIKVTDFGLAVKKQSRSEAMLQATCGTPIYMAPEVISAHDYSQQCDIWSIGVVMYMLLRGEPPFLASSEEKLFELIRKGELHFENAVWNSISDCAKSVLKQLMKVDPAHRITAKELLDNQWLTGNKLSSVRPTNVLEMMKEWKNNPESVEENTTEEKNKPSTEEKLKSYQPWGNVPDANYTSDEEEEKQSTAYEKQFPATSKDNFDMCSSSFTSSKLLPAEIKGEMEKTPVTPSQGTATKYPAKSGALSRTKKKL
Sequence of Calcium/calmodulin-dependent protein kinase type II subunit alpha (Homo sapiens) (Q9UQM7 whole entry): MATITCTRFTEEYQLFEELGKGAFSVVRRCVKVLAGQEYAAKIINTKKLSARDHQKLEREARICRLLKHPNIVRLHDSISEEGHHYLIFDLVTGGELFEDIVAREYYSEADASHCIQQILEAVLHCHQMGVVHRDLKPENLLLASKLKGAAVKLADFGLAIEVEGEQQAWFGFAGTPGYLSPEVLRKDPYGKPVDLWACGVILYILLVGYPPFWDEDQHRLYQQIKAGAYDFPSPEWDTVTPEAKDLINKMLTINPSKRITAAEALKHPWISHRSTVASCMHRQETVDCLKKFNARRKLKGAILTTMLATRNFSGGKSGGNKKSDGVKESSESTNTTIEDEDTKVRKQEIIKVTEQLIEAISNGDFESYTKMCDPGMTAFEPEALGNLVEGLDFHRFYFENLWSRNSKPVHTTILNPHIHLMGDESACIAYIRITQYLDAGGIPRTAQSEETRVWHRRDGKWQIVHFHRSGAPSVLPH
Sequence of eIF-2-alpha kinase GCN2 (Homo sapiens), Q9P2K8 [S808G] (Q9P2K8 whole entry S808G, the tested form may be a part): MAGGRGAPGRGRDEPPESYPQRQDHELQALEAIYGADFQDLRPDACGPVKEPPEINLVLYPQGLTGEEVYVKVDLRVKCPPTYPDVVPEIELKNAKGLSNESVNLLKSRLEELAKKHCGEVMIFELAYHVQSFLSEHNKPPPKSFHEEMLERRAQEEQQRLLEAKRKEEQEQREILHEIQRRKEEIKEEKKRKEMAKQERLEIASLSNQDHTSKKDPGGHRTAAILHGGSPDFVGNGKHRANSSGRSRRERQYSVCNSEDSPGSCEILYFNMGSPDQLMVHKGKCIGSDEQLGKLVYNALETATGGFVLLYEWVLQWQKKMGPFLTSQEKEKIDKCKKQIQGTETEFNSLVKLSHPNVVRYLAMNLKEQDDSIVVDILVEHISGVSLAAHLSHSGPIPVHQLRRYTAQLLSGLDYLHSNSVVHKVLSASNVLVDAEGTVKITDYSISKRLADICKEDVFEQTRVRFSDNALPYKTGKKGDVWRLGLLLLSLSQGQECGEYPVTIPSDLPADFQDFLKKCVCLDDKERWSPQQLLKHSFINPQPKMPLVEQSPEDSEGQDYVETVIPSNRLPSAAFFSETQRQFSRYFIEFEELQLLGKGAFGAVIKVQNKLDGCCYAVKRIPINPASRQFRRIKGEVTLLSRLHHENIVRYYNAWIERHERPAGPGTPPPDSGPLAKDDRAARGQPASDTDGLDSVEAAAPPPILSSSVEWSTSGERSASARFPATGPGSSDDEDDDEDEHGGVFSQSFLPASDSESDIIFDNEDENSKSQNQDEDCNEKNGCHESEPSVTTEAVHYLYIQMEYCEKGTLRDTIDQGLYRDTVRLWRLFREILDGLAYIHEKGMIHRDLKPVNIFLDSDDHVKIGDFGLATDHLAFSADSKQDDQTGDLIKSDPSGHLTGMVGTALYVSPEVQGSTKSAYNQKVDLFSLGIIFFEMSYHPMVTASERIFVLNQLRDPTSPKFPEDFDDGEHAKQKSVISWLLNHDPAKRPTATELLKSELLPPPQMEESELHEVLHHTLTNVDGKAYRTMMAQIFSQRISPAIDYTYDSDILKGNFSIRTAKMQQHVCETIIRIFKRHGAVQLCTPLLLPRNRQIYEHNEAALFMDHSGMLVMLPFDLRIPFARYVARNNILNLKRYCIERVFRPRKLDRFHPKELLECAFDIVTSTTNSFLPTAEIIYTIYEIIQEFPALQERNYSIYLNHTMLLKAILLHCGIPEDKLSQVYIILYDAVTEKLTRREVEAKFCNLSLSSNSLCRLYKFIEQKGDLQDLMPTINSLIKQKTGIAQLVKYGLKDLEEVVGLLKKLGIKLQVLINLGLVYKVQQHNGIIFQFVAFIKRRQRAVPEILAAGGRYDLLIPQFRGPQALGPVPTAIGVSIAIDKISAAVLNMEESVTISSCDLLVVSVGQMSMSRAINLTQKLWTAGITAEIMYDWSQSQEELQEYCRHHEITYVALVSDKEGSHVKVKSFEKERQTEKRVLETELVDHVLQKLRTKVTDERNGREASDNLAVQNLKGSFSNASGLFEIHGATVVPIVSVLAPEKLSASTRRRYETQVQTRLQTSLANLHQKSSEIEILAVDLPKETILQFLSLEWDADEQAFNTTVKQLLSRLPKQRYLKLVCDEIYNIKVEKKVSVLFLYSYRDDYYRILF
Sequence of RAC-alpha serine/threonine-protein kinase (Homo sapiens) (P31749 whole entry): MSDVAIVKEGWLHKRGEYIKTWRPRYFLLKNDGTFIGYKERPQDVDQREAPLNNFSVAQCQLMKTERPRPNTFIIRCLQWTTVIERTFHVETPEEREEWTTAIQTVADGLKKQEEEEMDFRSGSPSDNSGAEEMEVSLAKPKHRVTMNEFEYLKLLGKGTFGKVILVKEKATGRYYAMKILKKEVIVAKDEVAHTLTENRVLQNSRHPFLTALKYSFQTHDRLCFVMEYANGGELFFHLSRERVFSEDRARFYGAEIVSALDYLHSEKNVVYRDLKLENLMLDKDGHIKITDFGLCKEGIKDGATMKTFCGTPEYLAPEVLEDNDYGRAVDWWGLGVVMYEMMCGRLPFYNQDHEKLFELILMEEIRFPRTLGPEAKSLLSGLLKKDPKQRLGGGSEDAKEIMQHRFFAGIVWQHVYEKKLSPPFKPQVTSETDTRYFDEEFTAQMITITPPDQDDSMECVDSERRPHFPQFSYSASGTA
Sequence of LIM domain kinase 2 (Homo sapiens) (P53671 whole entry, looked up, the tested form may be a part): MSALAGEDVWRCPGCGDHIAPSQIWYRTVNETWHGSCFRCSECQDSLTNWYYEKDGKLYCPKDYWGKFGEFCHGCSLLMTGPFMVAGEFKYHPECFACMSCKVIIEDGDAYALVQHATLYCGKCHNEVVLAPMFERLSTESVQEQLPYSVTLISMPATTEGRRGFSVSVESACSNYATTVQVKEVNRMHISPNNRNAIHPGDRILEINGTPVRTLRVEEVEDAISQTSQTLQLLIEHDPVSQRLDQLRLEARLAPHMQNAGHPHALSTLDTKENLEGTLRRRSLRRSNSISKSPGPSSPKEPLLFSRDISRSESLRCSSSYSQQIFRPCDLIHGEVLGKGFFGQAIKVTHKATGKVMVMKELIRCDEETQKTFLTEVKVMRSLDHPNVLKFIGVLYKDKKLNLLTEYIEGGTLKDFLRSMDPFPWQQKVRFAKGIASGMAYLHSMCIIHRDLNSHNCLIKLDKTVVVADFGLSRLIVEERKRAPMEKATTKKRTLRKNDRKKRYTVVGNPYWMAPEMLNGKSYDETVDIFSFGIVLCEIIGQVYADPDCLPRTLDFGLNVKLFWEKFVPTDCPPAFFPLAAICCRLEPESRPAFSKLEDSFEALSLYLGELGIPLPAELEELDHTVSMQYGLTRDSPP
Sequence of Tyrosine-protein kinase Tec (Homo sapiens) (P42680 whole entry): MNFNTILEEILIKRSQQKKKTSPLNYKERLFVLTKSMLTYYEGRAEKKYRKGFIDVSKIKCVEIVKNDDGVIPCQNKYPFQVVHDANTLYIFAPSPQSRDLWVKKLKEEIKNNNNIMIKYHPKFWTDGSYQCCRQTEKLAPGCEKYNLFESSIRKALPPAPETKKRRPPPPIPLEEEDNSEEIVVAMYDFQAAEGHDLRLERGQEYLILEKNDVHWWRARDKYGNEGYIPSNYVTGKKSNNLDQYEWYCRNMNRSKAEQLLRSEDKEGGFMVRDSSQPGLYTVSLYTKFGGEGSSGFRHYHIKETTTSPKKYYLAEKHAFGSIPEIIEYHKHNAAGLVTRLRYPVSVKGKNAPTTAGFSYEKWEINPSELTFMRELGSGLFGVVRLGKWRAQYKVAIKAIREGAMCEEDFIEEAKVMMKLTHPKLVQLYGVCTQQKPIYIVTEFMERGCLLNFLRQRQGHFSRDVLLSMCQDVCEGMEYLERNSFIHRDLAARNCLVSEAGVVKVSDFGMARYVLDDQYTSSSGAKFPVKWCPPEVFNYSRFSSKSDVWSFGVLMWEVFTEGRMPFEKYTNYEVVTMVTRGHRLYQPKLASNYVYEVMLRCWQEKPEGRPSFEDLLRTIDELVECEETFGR

Compound: Cc1ccc2c(Nc3ccc(Cl)cc3)nccc2c1Nc1ncccc1-c1ncnc2[nH]cnc12.Cl.Cl.Cl
- Activity [1]: 100%
- Activity [2]: 97%
- Activity [3]: 100%
- Activity [4]: 100%
- Activity [5]: 100%
- Activity [6]: 92%
- Activity [7]: 89%
- Activity [8]: 100%
- Activity [9]: 80%
- Activity [10]: 99%
- Activity [11]: 100%
- Activity [12]: 100%
- Activity [13]: 100%
- IC50 [14]: 83 nM
- Activity [15]: 94%
- Activity [16]: 61%
- Activity [17]: 0.45%
- Activity [18]: 100%
- Activity [19]: 100%
- Activity [20]: 100%
- Activity [21]: 92%
- Activity [22]: 96%
- Activity [23]: 100%
- Activity [24]: 9.4%
- Activity [25]: 92%
- Activity [26]: 64%
- Activity [27]: 75%
- Activity [28]: 57%
- Activity [29]: 100%
- Activity [30]: 100%
- Activity [31]: 98%
- Activity [32]: 20%
- Activity [33]: 98%
- Activity [34]: 100%
- Activity [35]: 100%
- Activity [36]: 89%
- Activity [37]: 100%
- Activity [38]: 100%

Reference: ChEMBL document CHEMBL1155237, “Selective inhibitors of the mutant B-Raf pathway: discovery of a potent and orally bioavailable aminoisoquinoline” (J Med Chem, 2009)
